The results in this text go back to patent US20240209028A1, “CNP COMPOUNDS” (priority 2022, published 2024).

Data set [1] is described as follows: Local tolerance of CNP compounds in rats (s.c. injection, histopathology). Format: in vivo, Sprague Dawley rat. To be noted: for assessment for human subcutaneous administration: based on rat local tolerance. As to the method: The purpose of this study was to evaluate the local tissue reaction to subcutaneous injection of CNP compounds in rats.
Procedure: The CNP compounds were formulated according to the principles described in General Methods of Preparation-Method G. Each Sprague Dawley rat (male, 10-11 weeks of age at arrival, Janvier, France) was dosed s.c. with 250 or 350 uL of the same compound (formulation concentration of 1000 nmol/mL) 120 h prior to tissue collection resulting in a total of two injections for each animal (Table 15). Injection site (flank or neck) was alternated across animals within each group and time point.
Animals had access to tap water and food (Altromin 1324) ad libitum. Group size was n=3 for vehicles and positive control, and n=4 for test compounds. Vehicles and compounds were formulated in either 5 mM sodium acetate, 250 mM glycerol, pH 4.0 or 8 mM sodium phosphate, 250 mM glycerol, pH 7.4 as shown in Table 16.
The animals were anesthetized with isoflurane. Via an electric shaving machine, a squared area of fur (2 cm×2 cm) was removed either from the rats' neck or flank area). For dosing, a new injection needle (25G canula, 1 ml syringe) was placed in the middle of the square border closest to the animal's head and the needle was inserted into the skin from the border towards the center of the square. […] On the day of tissue collection, the rats were deeply anaesthetized with isoflurane and euthanized by exsanguination. The injection sites were inspected and scored with regards to pathological lesions. The injection sites were evaluated, and any changes were noted (location, colour, shape and size), and sampled for histology preparation.
The injection sites were removed and fixed in 4% phosphate buffered neutral formaldehyde in sealed plastic containers.
Each injection site was subsequently cut into three sections 0.8 cm, 1.0 cm and 1.2 cm from the square border where the injection needle was placed, and, respectively, these sections represented the injection sites and the adjacent tissue. The tissue was processed, embedded in paraffin and cut in 2-4 μm thin sections, stained with the haematoxylin and eosin (H&E), and evaluated microscopically with a light microscope. Histopathological changes were graded on a 5-level scale (Minimal (Min), Mild (Mil), Moderate (Mod), Marked (Mar) and Severe (Sev)).

Data set [2] can be described thus: CNP local tolerance study in LYD pigs (s.c. injection, histopathology). To be noted: pig, in vivo, sc. Format: in vivo, domestic LYD pig. Summed up:
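Domestic pigs dosed s.c. mid-back, 100 or 200 μl at approx. 4400 μM, in phosphate pH 6.5 or acetate pH 4.0 buffers with glycerol or propylene glycol; saline as negative control. Sites excised 4 or 5 days post injection, H&E sections graded on 5-level scale; necrosis used as marker.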

The mark [3] stands for this setting: 5 days after subcutaneous injections in the rat.

Starred links: 1 amine or outer side, 2 acyl side, 3 side chain; linkers in the order of their positions; H or OH if unused. Positions of bridges follow the written chain, without caps; N, C: chain ends. Residues, ends and D or L forms follow the SMILES beside them. *: point of attachment. C18 diacid = O=C(O)CCCCCCCCCCCCCCCCC(=O)*; γGlu = O=C(O)[C@H](CCC(=O)[*:2])N[*:1]; AEEA = NCCOCCOCC(=O)O

With `CC[C@H](C)[C@@H]1NC(=O)[C@H](CCCNC(=N)N)NC(=O)[C@H](CCC(=O)O)NC(=O)[C@H](CC(C)C)NC(=O)[C@H](CCCCN)NC(=O)[C@H](CC(C)C)NC(=O)CNC(=O)[C@H](Cc2ccccc2)NC(=O)[C@@H](NC(=O)CNC(=O)[C@H](CCCCN)NC(=O)[C@H](CO)NC(=O)[C@H](CC(C)C)NC(=O)CNC(=O)[C@H](CCCCN)NC(=O)[C@H](CCCCN)NC(=O)[C@H](CCC(N)=O)NC(=O)[C@H](C)NC(=O)CNC(=O)[C@H](CCCCN)NC(=O)[C@H](Cc2ccc(O)cc2)NC(=O)[C@H](CCCCN)NC(=O)[C@H](CCCNC(=N)N)NC(=O)[C@H](C)NC(=O)COCCOCCNC(=O)COCCOCCNC(=O)CC[C@H](NC(=O)CCCCCCCCCCCCCCCCC(=O)O)C(=O)O)CSSC[C@@H](C(=O)O)NC(=O)CNC(=O)[C@H](CC(C)C)NC(=O)CNC(=O)[C@H](CO)NC(=O)[C@H](CC(C)C)NC(=O)[C@H](CO)NC(=O)CNC1=O` [compound 0776] ({C18 diacid-γGlu-AEEA-AEEA}-ARKYKGAQKKGLSKGCFGLKLERIGSLSGLGC-OH; disulfide 16-32), the local subcutaneous necrosis entry in data set [1] (rat, in vivo, sc) is reported as “moderate to marked”; in data set [2], “moderate to marked”.

For `CC[C@H](C)[C@@H]1NC(=O)[C@H](CCCNC(=N)N)NC(=O)[C@H](CC(=O)O)NC(=O)[C@H](CC(C)C)NC(=O)[C@@H]2CCCN2C(=O)[C@H](CC(C)C)NC(=O)CNC(=O)[C@H](Cc2ccccc2)NC(=O)[C@@H](NC(=O)CNC(=O)[C@H](CO)NC(=O)[C@H](CO)NC(=O)[C@@H](NC(=O)CNC(=O)[C@@H](NC(=O)[C@H](Cc2c[nH]cn2)NC(=O)[C@H](CCC(N)=O)NC(=O)[C@H](C)NC(=O)CNC(=O)[C@H](Cc2c[nH]cn2)NC(=O)[C@H](Cc2ccc(O)cc2)NC(=O)[C@H](CCCCN)NC(=O)[C@H](CCCNC(=N)N)NC(=O)[C@H](C)NC(=O)COCCOCCNC(=O)COCCOCCNC(=O)CC[C@H](NC(=O)CCCCCCCCCCCCCCCCC(=O)O)C(=O)O)[C@@H](C)O)C(C)C)CSSC[C@@H](C(=O)O)NC(=O)CNC(=O)[C@H](CC(C)C)NC(=O)CNC(=O)[C@H](CO)NC(=O)[C@H](CC(C)C)NC(=O)[C@H](CO)NC(=O)CNC1=O` [compound 1351] ({C18 diacid-γGlu-AEEA-AEEA}-ARKYHGAQHTGVSSGCFGLPLDRIGSLSGLGC-OH; disulfide 16-32), in data set [1] (setting [3]), the local subcutaneous necrosis result is “no or mild”. For the same molecule, the “assessment for human subcutaneous administration” value in data set [1] is given as “acceptable”.

Consider `CC[C@H](C)[C@@H]1NC(=O)[C@H](CCCNC(=N)N)NC(=O)[C@H](CC(=O)O)NC(=O)[C@H](CC(C)C)NC(=O)[C@@H]2CCCN2C(=O)[C@H](CC(C)C)NC(=O)CNC(=O)[C@H](Cc2ccccc2)NC(=O)[C@@H](NC(=O)CNC(=O)[C@H](CCCCN)NC(=O)[C@H](CO)NC(=O)[C@@H](NC(=O)CNC(=O)[C@@H](NC(=O)[C@H](Cc2c[nH]cn2)NC(=O)[C@H](CCC(N)=O)NC(=O)[C@H](C)NC(=O)CNC(=O)[C@H](Cc2c[nH]cn2)NC(=O)[C@H](Cc2ccc(O)cc2)NC(=O)[C@H](CCCCN)NC(=O)[C@H](CCCNC(=N)N)NC(=O)[C@H](C)NC(=O)COCCOCCNC(=O)COCCOCCNC(=O)CC[C@H](NC(=O)CC[C@H](NC(=O)CC[C@H](NC(=O)CCCCCCCCCCCCCCCCC(=O)O)C(=O)O)C(=O)O)C(=O)O)[C@@H](C)O)C(C)C)CSSC[C@@H](C(=O)O)NC(=O)CNC(=O)[C@H](CC(C)C)NC(=O)CNC(=O)[C@H](CO)NC(=O)[C@H](CC(C)C)NC(=O)[C@H](CO)NC(=O)CNC1=O` [compound 1420] ({C18 diacid-γGlu-γGlu-γGlu-AEEA-AEEA}-ARKYHGAQHTGVSKGCFGLPLDRIGSLSGLGC-OH; disulfide 16-32), for which, in data set [1] (setting [3]), the local subcutaneous necrosis result is “no or mild”. Further, in data set [1], the “assessment for human subcutaneous administration” value was “acceptable”.
